# From patent US11466013B2 (Betta Pharmaceuticals Co., LTD, priority 2018, dated 2022)
# Legend:
# COLO205 cells = test: Cell proliferation assay (COLO205), Cell-titer Glo; format: cell-based; details: Homo sapiens, COLO 205, 120 h incubation
# Experimental: COLO205 cells were spread into a 96-well plate at 135 μL/well at 2000 cells. After incubating overnight, compound solutions of gradient concentration was prepared, and added 15 μL of DMSO solution of the test compound of each concentration to the cells of each well. The final concentration of the compound was 30000, 10000, 3333.3, 1111.1, 370.4, 123.5, 41.2, 13.7, 4.6, 0 nM (the final concentration of DMSO was 0.5%). 5% CO2 was incubated for 120 h at 37° C. 50 μL of Cell-titer Glo working solution was added to each well, shaked and mixed, and incubated at room temperature for 10 minutes. The multi-functional microplate reader read the luminescence value, and converted the luminescence value reading into inhibition percentage. Inhibition percentage=(maximum value−reading)/(maximum value−minimum value)*100.
# The “maximum value” was the DMSO control, the “minimum value” indicates the cell-free control group.
# Graphpad Prism software was used to perform curve fitting and obtain IC50 value.
# ERK2 = ERK2 (Homo sapiens, UniProt P28482); test: Kinase assay (Caliper, FAM-labeled peptide), ERK2; format: biochemical
# ERK2, sequence (P28482 whole entry): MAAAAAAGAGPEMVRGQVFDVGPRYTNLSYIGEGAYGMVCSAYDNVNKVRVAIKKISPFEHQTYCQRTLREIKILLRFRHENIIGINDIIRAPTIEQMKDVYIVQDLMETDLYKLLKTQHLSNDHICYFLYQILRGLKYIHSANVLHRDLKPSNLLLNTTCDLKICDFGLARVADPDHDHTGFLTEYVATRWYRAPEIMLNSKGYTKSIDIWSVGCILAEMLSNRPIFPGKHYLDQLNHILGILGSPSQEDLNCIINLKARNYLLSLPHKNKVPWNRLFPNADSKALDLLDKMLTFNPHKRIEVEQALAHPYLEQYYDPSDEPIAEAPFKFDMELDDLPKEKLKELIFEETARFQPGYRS
# Method in brief: (§1)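 Kinase preincubated 10 min at room temperature with serially diluted compound before FAM-labeled peptide plus ATP added; reaction run at 28 °C, then stopped. Substrate conversion read by Caliper mobility shift, normalized to DMSO and low controls, curve-fitted for IC50.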
# ERK1 = ERK1 (Homo sapiens, UniProt P27361); test: Kinase assay (Caliper, FAM-labeled peptide), ERK1; format: biochemical
# ERK1, sequence (P27361 whole entry): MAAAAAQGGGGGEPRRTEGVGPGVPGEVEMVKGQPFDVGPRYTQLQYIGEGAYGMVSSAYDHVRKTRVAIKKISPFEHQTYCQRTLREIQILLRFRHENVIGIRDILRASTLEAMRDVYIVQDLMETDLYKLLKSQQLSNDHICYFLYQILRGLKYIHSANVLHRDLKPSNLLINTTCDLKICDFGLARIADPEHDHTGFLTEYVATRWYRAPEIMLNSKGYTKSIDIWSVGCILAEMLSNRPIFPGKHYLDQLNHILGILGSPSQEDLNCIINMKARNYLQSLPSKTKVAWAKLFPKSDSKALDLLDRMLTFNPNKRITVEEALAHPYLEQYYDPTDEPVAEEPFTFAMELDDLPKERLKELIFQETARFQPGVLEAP
# Method in brief: as §1
IC50 (COLO205 cells),IC50 (ERK2),IC50 (ERK1),Compound
16.7 nM,0.87 nM,0.89 nM,"CC(C)Nc1cc(-c2cc3n(c2)CC2(COC2)CN(Cc2cc(F)ccc2CO)C3=O)c(Cl)cn1 [Example 10, 8′-(5-chloro-2-(isopropylamino)pyridin-4-yl)-2′-(5-fluoro-2-(hydroxymethyl)benzyl)-2′,3′-dihydro-1′h,5′h-spiro[oxacyclobutane-3,4′-pyrrolo[1,2-a][1,4]diazepine]-1′-one]"
50.8 nM,0.89 nM,0.74 nM,CC(C)Nc1cc(-c2cc3n(c2)CC2(COC2)CN(Cc2ccc(F)cc2CO)C3=O)c(Cl)cn1 [Example 13]
56 nM,0.6 nM,0.9 nM,"CC(C)Nc1cc(-c2cc3n(c2)CCCN(Cc2ccccc2CO)C3=O)c(Cl)cn1 [Example 16, 8-(5-chloro-2-(isopropylamino)pyridin-4-yl)-2-(2-(hydroxylmethyl)benzyl)-2,3,4,5-tetrahydro-1h-pyrrolo [1,2-a][1,4]diazepine-1-one]"
25 nM,0.4 nM,0.47 nM,CC(C)Nc1cc(-c2cc3n(c2)CC2(COC2)CN(Cc2cc(F)c(F)cc2CO)C3=O)c(Cl)cn1 [Example 17]
56.6 nM,0.49 nM,0.4 nM,"CC(C)Nc1cc(-c2cc3n(c2)CCN(Cc2cc(F)ccc2CO)C3=O)c(Cl)cn1 [Example 18, 7-(5-chloro-2-(isopropylamino)pyridin-4-yl)-2-(5-fluoro-2-(hydroxymethyl)benzyl)-3,4-dihydropyrrolo[1,2-a]pyrazine-1(2H)-one]"
76.7 nM,0.56 nM,0.34 nM,"CC(C)Nc1cc(-c2cc3n(c2)CC(O)CN(Cc2cc(F)ccc2CO)C3=O)c(Cl)cn1 (stereo not drawn) [Example 20, 8-(5-chloro-2-(isopropylamino)pyridin-4-yl)-2-(5-fluoro-2-(hydroxymethyl)benzyl)-4-hydroxy-2,3,4,5-tetrahydro-1h-pyrrolo [1,2-a][1,4]diazepine-1-one]"
73.3 nM,0.76 nM,0.73 nM,"CC(C)Nc1cc(-c2cc3n(c2)CCCN(Cc2cc(F)c(F)cc2CO)C3=O)c(Cl)cn1 [Example 21, 8-(5-chloro-2-(isopropylamino)pyridin-4-yl)-2-(4,5-difluoro-2-(hydroxymethyl)benzyl)-2,3,4,5-tetrahydro-1h-pyrrolo[1,2-a][1,4] diazepine-1-one]"
35.3 nM,0.34 nM,0.43 nM,"Cc1cnc(Nc2ccnn2C)nc1-c1c[nH]c(C(=O)NCc2cc(F)ccc2CO)c1 [Example 22, N-(5-fluoro-2-(hydroxymethyl)benzyl)-4-(5-methyl-2-((1-methyl-1H-pyrazol-5-yl)amino)pyrimidin-4-yl)-1H-pyrrole-2-carboxamide]"
18.7 nM,0.48 nM,0.42 nM,"Cc1cnc(Nc2ccnn2C)nc1-c1cc2n(c1)CCN(Cc1cc(F)ccc1CO)C2=O [Example 23, 2-(5-Fluoro-2-(hydroxymethyl)benzyl)-7-(5-methyl-2-((1-methyl-1H-pyrazol-5-yl)amino)pyrimidin-4-yl)-3,4-dihydropyrrolo[1,2-a]pyrazine-1(2H)-one]"
50 nM,0.53 nM,0.65 nM,"CC(C)Nc1cc(-c2cc3n(c2)CC2(CNC2)CN(Cc2ccccc2CO)C3=O)c(Cl)cn1 [Example 24, 8′-(5-Chloro-2-(isopropylamino)pyridin-4-yl)-2′-(2-(hydroxymethyl)benzyl)-2′,3′-dihydro-1′H,5′H-spiro[azetidine-3,4′-pyrrolo[1,2-a][1,4]diazepine]-1′-one]"
9.6 nM,0.59 nM,0.96 nM,CC(C)Nc1cc(-c2cc3n(c2)CC(CO)(CO)CN(Cc2ccccc2CO)C3=O)c(Cl)cn1 [Example 27]
76 nM,0.4 nM,0.45 nM,"Cc1cnc(NC2CCOC2)nc1-c1cc2n(c1)CCN(Cc1cc(F)ccc1CO)C2=O (stereo not drawn) [Example 33, 2-(5-fluoro-2-(hydroxymethyl)benzyl)-7-(5-methyl-2-((tetrahydrofuran-3-yl)amino)pyrimidin-4-yl)-3,4-dihydropyrrolo[1,2-a]pyrazine-1(2H)-one]"
